Data published in patent US6541493B1, “Crystals of 5-[{6-(2-fluorobenzyl)oxy-2-naphthyl}methyl]-2,4-thiazolidinedione” (Mitsubishi Chemical Corporation, priority 1999, dated 2003).
“Also recorded” adds a separate entry of the source. One block for each molecule: values may come before it.

Tests used:
Type in all cases: physicochemical
[1] = Stability to physical impact (grinding in agate mortar, powder X-ray diffraction); settings: 1 g ground for 1 minute in agate mortar, powder X-ray diffraction pattern compared with before grinding
Procedure: A sample (1 g) of each of the type A-D crystals was placed in an agate mortar, and ground for 1 minute, and powder X-ray diffraction pattern of the ground sample was determined. The pattern was compared with that of the crystal form before the grinding to examine a change of the crystal form.

[2] = Thermal stability (oven heating, powder X-ray diffraction); settings: about 50 mg in glass bottle, under atmosphere in oven at 70° C. for 24 hours
Procedure: A sample (about 50 mg) of each of the crystals of types A, C and D was placed in a transparent glass bottle, and heated under atmosphere in an oven at 70° C. for 24 hours. After cooling, powder X-ray diffraction pattern was measured to examine a change of the crystal form.

[3] = Stability in a solvent (heated with stirring in suspension); settings: heated with stirring in suspension in water, methylene chloride, hexane, ethyl acetate-hexane and ethanol
Description: The type A crystals were heated with stirring in a state of suspension in a variety of solvents including water, methylene chloride, hexane, ethyl acetate-hexane and ethanol, and then examined the absence or presence of a change of the crystal form after the treatment.

- Change after grinding ([1]; listed as A): No change
- Change of the crystal form after heating ([2]; listed as type A): no change
- Change of the crystal form after treatment in solvents [3]: no change
SMILES: O=C1NC(=O)C(Cc2ccc3cc(OCc4ccccc4F)ccc3c2)S1 (centres unmarked) [Crystal form A, 5-[{6-(2-fluorobenzyl)oxy-2-naphthyl}methyl]-2,4-thiazolidinedione]

SMILES: O=C1NC(=O)C(Cc2ccc3cc(OCc4ccccc4F)ccc3c2)S1 (centres unmarked) [Crystal form B, 5-[{6-(2-fluorobenzyl)oxy-2-naphthyl}methyl]-2,4-thiazolidinedione]
- Change after grinding ([1]; listed as B): Partial changes; also recorded: Partially changed

- Change after grinding ([1]; listed as C): No change
- Change of the crystal form after heating ([2]; listed as type C): partial change
SMILES: O=C1NC(=O)C(Cc2ccc3cc(OCc4ccccc4F)ccc3c2)S1 (centres unmarked) [Crystal form C, 5-[{6-(2-fluorobenzyl)oxy-2-naphthyl}methyl]-2,4-thiazolidinedione]

- Change of the crystal form after heating [2]: no change
SMILES: O=C1NC(=O)C(Cc2ccc3cc(OCc4ccccc4F)ccc3c2)S1 (centres unmarked) [Crystal form D, 5-[{6-(2-fluorobenzyl)oxy-2-naphthyl}methyl]-2,4-thiazolidinedione]
- Change after grinding ([1]; listed as D): Partial changes; also recorded: Partially changed
